One test deals with T1, ALK-wt (Homo sapiens, UniProt Q9UM73).
T1 construct: purchased Carna 08-518
Briefly: Biochemical kinase assay, ALK-wt kinase domain. The following applies: apparent inhibitory constant, Morrison equation; ATP 2 mM in substrate solution; read-out: ALK-wt Ki^app. As to the method:
(§1) First, 250 nL of compound dissolved in DMSO (100-fold of the desired concentration) was dispensed into a 384-well plate. A 12.5 μL substrate solution containing ATP (2 mM) and fluorogenic phosphorylation substrate AQT0101 (26 μM for ALK and ROS1, AssayQuant) or AQT0104 (26 μM for TRKA, AssayQuant) in buffer (50 mM HEPES pH 7.5, 0.01% Brij-35, 0.5 mM EGTA, 10 mM MgCl2) was added and mixed thoroughly. Then, a 12.5 μL kinase solution containing ALK-wt (1.5 nM, Carna, 08-518), ALK ALK L1196M/G1202R (3 nM, SignalChem, A19-12NG), ROS1-wt (0.6 nM, Carna, 08-163), ROS1-G2032R (0.5 nM, SignalChem, R14-12BG), or TRKA-wt (1 nM, BPS Bio, 40280) kinase domains in buffer (50 nM HEPES pH 7.5, 0.01% Brij-35, 2% glycerol, 0.4 mg/mL BSA, 0.5 mM EGTA, and 10 mM MgCl2) was added and mixed thoroughly. The plate was sealed and read by SpectraMax Paradigm at λ=485 nm every 2 minutes for 120 minutes at 30° C. Initial rates of reaction (v) were calculated from the change in fluorescence intensity over time during the initial, linear portion of the reaction. Finally, apparent inhibitory constants (Ki^app) were determined from regression of v and I (inhibitor concentration) to Morrison Equation (E=enzyme concentration): […]

Another test concerns the target T2, ALK L1196M/G1202R (Homo sapiens, UniProt Q9UM73, G1202R/L1196M).
T2 construct: purchased SignalChem A19-12NG
Briefly: Biochemical kinase assay, ALK L1196M/G1202R kinase domain. The following applies: apparent inhibitory constant, Morrison equation; ATP 2 mM in substrate solution; read-out: ALK-L1196M-G1202R Ki^app. As to the method:
as §1

In another test the target is T3, ROS1-wt (Homo sapiens, UniProt P08922).
T3 construct: purchased Carna 08-163
Nature of the test: Biochemical kinase assay, ROS1-wt kinase domain. Particulars: apparent inhibitory constant, Morrison equation; ATP 2 mM in substrate solution; read-out: ROS1-wt Ki^app. As to the method:
as §1, with “Then, a 12.5 μL kinase solution containing ALK-wt (1.5 nM, Carna, 08-518), ALK ALK L1196M/G1202R (3 nM, SignalChem, A19-12NG), ROS1-wt (0.6 nM, Carna, 08-163), ROS1-G2032R (0.5 nM, SignalChem, R14-12BG), or TRKA-wt (1 nM, BPS Bio, 40280) kinase domains in buffer (50 nM HEPES pH 7.5, 0.01% Brij-35, 2% glycerol, 0.4 mg/mL BSA, 0.5 mM EGTA, and 10 mM MgCl2) was added and mixed thoroughly.” left out

In the next test the target is T4, ROS1-G2032R (Homo sapiens, UniProt P08922, G2032R).
T4 construct: purchased SignalChem R14-12BG
Briefly: Biochemical kinase assay, ROS1-G2032R kinase domain. Particulars: apparent inhibitory constant, Morrison equation; ATP 2 mM in substrate solution; read-out: ROS1-G2032R Ki^app. As to the method:
as §1, with “Then, a 12.5 μL kinase solution containing ALK-wt (1.5 nM, Carna, 08-518), ALK ALK L1196M/G1202R (3 nM, SignalChem, A19-12NG), ROS1-wt (0.6 nM, Carna, 08-163), ROS1-G2032R (0.5 nM, SignalChem, R14-12BG), or TRKA-wt (1 nM, BPS Bio, 40280) kinase domains in buffer (50 nM HEPES pH 7.5, 0.01% Brij-35, 2% glycerol, 0.4 mg/mL BSA, 0.5 mM EGTA, and 10 mM MgCl2) was added and mixed thoroughly.” left out

In a further test the target is T5, TRKA-wt (Homo sapiens, UniProt P04629).
T5 construct: or TRKA-wt (1 nM, BPS Bio, 40280) kinase domains in buffer; purchased BPS Bio 40280
Briefly: Biochemical kinase assay, TRKA-wt kinase domain. The following applies: apparent inhibitory constant, Morrison equation; ATP 2 mM in substrate solution; read-out: TRKA-wt Ki^app. As to the method:
as §1

Test [1] has as its target T6, Ba/F3 cells CD74-ROS1 G2032R (Homo sapiens, UniProt P08922, G2032R).
T6 construct: fusion of the C-terminus of ROS1 with the N-terminus of various partner proteins; host or cells: Ba/F3 (RIKEN), retroviral pMSCV-puro; the other entry of the earlier key: CD74 (P04233, HLA class II histocompatibility antigen gamma chain)
Briefly: Ba/F3 cell proliferation assay, CD74-ROS1 G2032R. The format is cell-based. The following applies: 72 hours, CellTiter-Glo. As to the method: The virus was used to infect Ba/F3 cells (RIKEN) at multiplicity of infection=1 for 1 day. Infected cells were rescued in media (RPMI-1640 with 10% fetal bovine serum and 1% streptomycin and penicillin) supplemented with mouse IL-3 (10 ng/mL) for 2 days, and stable cell lines were selected by IL-3 withdrawal and puromycin (0.8 μg/mL) for 7 days. Monoclones were selected by single-cell dilution in IL-3-free medium containing puromycin (0.8 μg/mL).
(§2) Cell Proliferation Assay Stable cells were plated at 1,000 cells/well (40 μL) in a 384-well plate for 1 day.
(§3) Test compounds (40 nL) were then added in a 3-fold dilution series using the TECAN EVO200 liquid handler and incubated for 72 hours. Plates were equilibrated at room temperature for 15 minutes followed by addition of 40 μL CellTiter-Glo reagent (Promega).
(§4) Luminescence was measured on a plate reader. Half-maximal inhibitory concentration (IC50) was calculated from percent inhibition and inhibitor concentration using four-parameter logistic regression. […] (nd=not determined).
A general note: ATP-based viability assays read luminescence as a measure of living cells.

The target in test [2] is T7, Ba/F3 cells EML4-ALK L1196M/G1202R (variant 1) (Homo sapiens, UniProt Q9UM73, G1202R/L1196M).
T7 construct: echinoderm microtubule-associated protein-like 4 (EML4) gene and the ALK tyrosine kinase domain; host or cells: Ba/F3 (RIKEN), retroviral pMSCV-puro; the other entry of the earlier key: EML4 (Q9HC35, Echinoderm microtubule-associated protein-like 4)
Nature of the test: Ba/F3 cell proliferation assay, EML4-ALK L1196M/G1202R (variant 1). The following applies: 72 hours, CellTiter-Glo. It is filed as cell-based.
Excerpt: (§5) Genes encoding CD74-ROS1 wild-type (wt), CD74-ROS1 G2032R, CD74-ROS1 S1986F, CD74-ROS1 L2026M, CD74-ROS1 D2033N, EML4-ALK wt (variant 1), EML4-ALK G1202R (variant 1), EML4-ALK L1196M/G1202R (variant 1), EML4-ALK G1202R/G1269A (variant 1), EML4-ALK G1202R/L1198F (variant 1), and TPM3-TRKA were synthesized at GeneRay, cloned into the retroviral construct pMSCV-puro (Biovector), and packaged into retroviral particles. The virus was used to infect Ba/F3 cells (RIKEN) at multiplicity of infection=1 for 1 day. Infected cells were rescued in media (RPMI-1640 with 10% fetal bovine serum and 1% streptomycin and penicillin) supplemented with mouse IL-3 (10 ng/mL) for 2 days, and stable cell lines were selected by IL-3 withdrawal and puromycin (0.8 μg/mL) for 7 days. Monoclones were selected by single-cell dilution in IL-3-free medium containing puromycin (0.8 μg/mL). Transformation of desired genes was confirmed by Sanger sequencing and western blot using the following antibodies: ROS1 (CST #3287), ALK (CST #3633), and pan-TRK (Abcam #76291).
as §2, §3, §4

Another test concerns the target T8, Ba/F3 cells TPM3-TRKA (Homo sapiens, UniProt P04629).
T8 construct: host or cells: Ba/F3 (RIKEN), retroviral pMSCV-puro; the other entry of the earlier key: TPM3 (P06753, Tropomyosin alpha-3 chain)
Briefly: Ba/F3 cell proliferation assay, TPM3-TRKA. It is filed as cell-based. The following applies: 72 hours, CellTiter-Glo, read-out: TPM3-NTRK1-wt IC50.
Excerpt: as §5, §2, §3, §4

Test [3] concerns TPM3-NTRK1-wt IC50 / primary target IC50 (e.g. CD74-ROS1-wt). Nature of the test: TRKA selectivity in Ba/F3 cells (TRKA potency divided by primary target potency). The format is cell-based. As to the method:
TRKA selectivity was calculated by dividing a compound's TRKA potency by its primary target potency (e.g. TPM3-NTRK1-wt IC50/CD74-ROS1-wt IC50). Compound selectivity can be interpreted by binning ratio values: bin A for very high selectivity, ratio >30-fold; bin B for high selectivity, ratio >10-fold; bin C for moderate selectivity, ratio ≥1; and bin D for low selectivity, ratio <1. […] (nd=not determined).

Test [4] deals with T9, Ba/F3 cells EML4-ALK wt (variant 1) (Homo sapiens, UniProt Q9UM73).
T9 construct: echinoderm microtubule-associated protein-like 4 (EML4) gene and the ALK tyrosine kinase domain; host or cells: Ba/F3 (RIKEN), retroviral pMSCV-puro; the other entry of the earlier key: EML4 (Q9HC35, Echinoderm microtubule-associated protein-like 4)
Briefly: Ba/F3 cell proliferation assay, EML4-ALK wt (variant 1). The format is cell-based. Particulars: 72 hours, CellTiter-Glo.
Excerpt: as §5, §2, §3, §4

The structures appear in SMILES notation.

By IC50 is commonly meant the concentration needed to halve the response being measured.

T8 sequence (P04629 510-796 limits assumed): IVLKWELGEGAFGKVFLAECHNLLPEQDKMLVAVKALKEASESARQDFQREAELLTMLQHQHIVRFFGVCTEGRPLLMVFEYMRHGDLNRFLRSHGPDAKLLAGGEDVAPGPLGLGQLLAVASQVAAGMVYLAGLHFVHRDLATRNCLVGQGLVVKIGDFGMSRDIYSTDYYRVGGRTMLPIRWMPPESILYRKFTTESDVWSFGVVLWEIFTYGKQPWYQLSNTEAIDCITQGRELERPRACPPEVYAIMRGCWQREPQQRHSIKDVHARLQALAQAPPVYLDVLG
T5 sequence (P04629 510-781 limits assumed): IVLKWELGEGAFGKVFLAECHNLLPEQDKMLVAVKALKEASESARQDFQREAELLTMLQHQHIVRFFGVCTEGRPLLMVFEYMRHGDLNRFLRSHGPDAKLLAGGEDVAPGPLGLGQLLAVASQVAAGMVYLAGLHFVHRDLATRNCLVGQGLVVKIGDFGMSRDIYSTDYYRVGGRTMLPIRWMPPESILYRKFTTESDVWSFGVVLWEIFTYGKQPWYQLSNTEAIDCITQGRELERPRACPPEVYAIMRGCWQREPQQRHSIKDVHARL
T1 sequence (Q9UM73 1116-1392 limits assumed): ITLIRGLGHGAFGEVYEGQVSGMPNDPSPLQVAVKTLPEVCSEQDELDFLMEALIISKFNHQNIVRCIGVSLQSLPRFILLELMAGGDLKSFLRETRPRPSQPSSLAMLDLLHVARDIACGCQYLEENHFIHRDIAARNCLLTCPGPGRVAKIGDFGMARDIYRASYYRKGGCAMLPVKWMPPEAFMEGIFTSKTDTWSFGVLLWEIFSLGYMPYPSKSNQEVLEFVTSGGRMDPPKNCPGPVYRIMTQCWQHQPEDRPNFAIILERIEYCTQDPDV
T7 sequence (Q9UM73 with tags, fused parts or gaps L1196M/G1202R): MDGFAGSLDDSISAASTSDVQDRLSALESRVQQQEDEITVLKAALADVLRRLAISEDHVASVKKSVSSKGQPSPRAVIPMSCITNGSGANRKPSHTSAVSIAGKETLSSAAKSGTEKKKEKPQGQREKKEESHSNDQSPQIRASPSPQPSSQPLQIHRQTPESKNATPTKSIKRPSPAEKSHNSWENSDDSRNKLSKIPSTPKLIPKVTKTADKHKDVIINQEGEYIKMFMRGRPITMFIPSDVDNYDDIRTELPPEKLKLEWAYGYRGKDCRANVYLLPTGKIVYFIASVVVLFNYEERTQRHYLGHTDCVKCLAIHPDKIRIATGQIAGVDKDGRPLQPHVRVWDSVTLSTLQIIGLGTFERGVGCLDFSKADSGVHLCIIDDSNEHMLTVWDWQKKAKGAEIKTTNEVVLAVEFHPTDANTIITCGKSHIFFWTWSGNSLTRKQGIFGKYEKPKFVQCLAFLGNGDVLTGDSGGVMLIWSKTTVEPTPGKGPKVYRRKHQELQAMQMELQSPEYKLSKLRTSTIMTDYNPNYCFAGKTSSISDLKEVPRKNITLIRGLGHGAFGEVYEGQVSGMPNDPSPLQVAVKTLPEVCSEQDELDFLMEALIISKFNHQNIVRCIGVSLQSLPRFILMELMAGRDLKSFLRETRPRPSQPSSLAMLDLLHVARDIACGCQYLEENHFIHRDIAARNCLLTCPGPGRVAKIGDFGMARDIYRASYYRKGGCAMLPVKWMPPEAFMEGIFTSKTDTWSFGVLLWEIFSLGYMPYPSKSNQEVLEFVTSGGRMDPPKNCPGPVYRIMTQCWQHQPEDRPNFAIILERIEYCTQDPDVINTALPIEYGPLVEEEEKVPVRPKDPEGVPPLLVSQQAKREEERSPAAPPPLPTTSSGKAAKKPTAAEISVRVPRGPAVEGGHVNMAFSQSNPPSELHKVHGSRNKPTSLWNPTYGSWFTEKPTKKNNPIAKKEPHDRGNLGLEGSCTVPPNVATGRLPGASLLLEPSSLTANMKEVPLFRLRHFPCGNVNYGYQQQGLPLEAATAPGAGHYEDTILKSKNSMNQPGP
T2 sequence (Q9UM73 1116-1392 L1196M/G1202R limits assumed): as the sequence (Q9UM73 1116-1392 limits assumed) above, with L81M, G87R counted along it
T9 sequence (Q9UM73 with tags, fused parts or gaps): as the sequence (Q9UM73 with tags, fused parts or gaps L1196M/G1202R) above, with M635L, R641G counted along it
T3 sequence (P08922 1945-2222 limits assumed): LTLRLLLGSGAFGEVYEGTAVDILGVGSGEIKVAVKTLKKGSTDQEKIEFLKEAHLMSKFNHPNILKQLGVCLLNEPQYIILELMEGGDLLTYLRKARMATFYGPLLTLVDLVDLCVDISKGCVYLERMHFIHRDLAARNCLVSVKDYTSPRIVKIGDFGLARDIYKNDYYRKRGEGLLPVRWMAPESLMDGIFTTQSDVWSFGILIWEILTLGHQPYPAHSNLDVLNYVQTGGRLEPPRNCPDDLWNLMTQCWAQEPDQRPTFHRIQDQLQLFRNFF
T6 sequence (P08922 1883-2347 G2032R limits assumed): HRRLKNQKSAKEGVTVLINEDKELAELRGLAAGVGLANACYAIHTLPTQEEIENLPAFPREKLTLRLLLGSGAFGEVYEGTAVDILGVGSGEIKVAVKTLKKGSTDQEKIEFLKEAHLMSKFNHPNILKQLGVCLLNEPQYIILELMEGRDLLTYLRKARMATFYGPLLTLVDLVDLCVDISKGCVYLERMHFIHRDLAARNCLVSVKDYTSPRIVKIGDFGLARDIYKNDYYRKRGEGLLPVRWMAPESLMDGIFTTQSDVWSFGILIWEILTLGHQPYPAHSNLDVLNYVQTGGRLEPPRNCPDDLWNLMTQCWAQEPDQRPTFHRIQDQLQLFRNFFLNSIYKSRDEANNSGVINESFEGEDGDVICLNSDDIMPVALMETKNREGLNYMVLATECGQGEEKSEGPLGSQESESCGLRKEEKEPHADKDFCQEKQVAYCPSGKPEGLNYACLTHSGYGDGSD
T4 sequence (P08922 1945-2222 G2032R limits assumed): as the sequence (P08922 1945-2222 limits assumed) above, with G88R counted along it

Regarding `CCn1ncc2c1-c1cnc(N)c(c1)O[C@H](C)c1cc(F)ccc1-c1cnnn1C2` [Example 2, (19R)-3-ethyl-16-fluoro-19-methyl-20-oxa-3,4,8,9,10,23-hexaazapentacyclo[19.3.1.0^2,^6.0^8,^12.0^13,^18]pentacosa-1(24),2(6),4,9,11,13,15,17,21 (25),22-decaen-22-amine], the Ki on ALK-wt was less than 0.05 µM; on ALK L1196M/G1202R, 0.05 to 0.5 µM; at ROS1-wt, less than 0.05 µM; on ROS1-G2032R, 0.05 to 0.5 µM; at TRKA-wt it was greater than 0.5 µM. For the same compound, the IC50 in test [1] was 0.0001 to 0.05 µM; in test [2] it was greater than 0.5 µM; at Ba/F3 cells TPM3-TRKA, greater than 0.5 µM. The TPM3-NTRK1-wt/CD74-ROS1-G2032R selectivity ratio entry in test [3] (TRKA potency / CD74-ROS1-G2032R potency) is recorded as “A (bin A for very high selectivity, ratio >30-fold)”. For the same compound, the TPM3-NTRK1-wt/EML4-ALK-L1196M-G1202R selectivity ratio result in test [3] (TRKA potency / EML4-ALK-L1196M-G1202R potency) is “C (bin C for moderate selectivity, ratio ≥1)”.

In the case of `CCn1ncc2c1-c1cnc(N)c(c1)O[C@H](C)c1cc(F)ccc1-c1nn(C)nc1C2` [Example 5, (19R)-3-ethyl-16-fluoro-10,19-dimethyl-20-oxa-3,4,9,10,11,23-hexaazapentacyclo[19.3.1.0^2,^6.0^8,^12.0^13,^18]pentacosa-1(24),2(6),4.8,11,13,15,17,21(25),22-decaen-22-amine], the Ki at ALK-wt is less than 0.05 µM; at ALK L1196M/G1202R it was less than 0.05 µM; on TRKA-wt it was 0.05 to 0.5 µM. Also, the IC50 in [4] fell in the range of 0.0001 to 0.05 µM; in test [2], 0.0001 to 0.05 µM; on Ba/F3 cells TPM3-TRKA, 0.05 to 0.5 µM.

Source of the values: patent US12054498B2, “Heteroaromatic macrocyclic ether chemotherapeutic agents” (Nuvalent, Inc., priority 2020, dated 2024).
